Results: publication PMC10458698, “Characterization of the interferences of systemic azole antifungal drugs with adrenal steroid biosynthesis using H295R cells and enzyme activity assays” (Current Research in Toxicology, 2023)
Read-outs that look alike come from different tables or passages of the source.

Experiments:
CYP17A1 17,20-lyase = target: T1, CYP17A1 17,20-lyase (Homo sapiens, UniProt P05093); test: CYP17A1 17,20-lyase activity assay, microsomes of transfected COS-1 cells; format: biochemical; conditions: for IC50: cell-free, 17α-hydroxypregnenolone 500 nM, 1 h
T1 construct: expressed in transfected cells; host or cells: COS-1 cells, transient transfection, microsomal fraction
T1 sequence (P05093 1-508): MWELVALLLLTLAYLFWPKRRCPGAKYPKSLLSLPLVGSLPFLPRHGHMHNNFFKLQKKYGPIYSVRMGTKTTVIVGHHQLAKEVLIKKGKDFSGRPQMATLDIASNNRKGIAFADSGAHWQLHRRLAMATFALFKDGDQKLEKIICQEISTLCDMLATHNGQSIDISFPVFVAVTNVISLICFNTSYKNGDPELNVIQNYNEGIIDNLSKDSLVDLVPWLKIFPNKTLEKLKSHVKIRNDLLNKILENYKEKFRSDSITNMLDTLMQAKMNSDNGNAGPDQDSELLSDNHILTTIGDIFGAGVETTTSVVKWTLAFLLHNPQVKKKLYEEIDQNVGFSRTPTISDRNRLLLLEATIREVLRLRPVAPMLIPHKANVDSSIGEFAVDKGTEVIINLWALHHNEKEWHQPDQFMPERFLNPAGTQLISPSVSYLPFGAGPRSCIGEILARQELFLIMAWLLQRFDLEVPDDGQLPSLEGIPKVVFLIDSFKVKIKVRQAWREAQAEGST
Method: (§1) Microsomes were prepared from COS-1 cells transiently transfected with plasmids for either CYP17A1 and POR for CYP17A1-hydroxylase assay (human CYP17A1 was available in our own plasmid collection after cloning into pcDNA3, POR was ordered from Genescript, Piscataway, USA, clone ID OHu25584C), CYP17A1, POR and cytochrome b5 for CYP17A1 17,20-lyase assay (cytochrome b5 was from Genescript, clone ID OHu09495D), POR and CYP21A2 (Genescript, CYP21A2 clone ID OHu18602D), or 3β-HSD2 (Genescript, clone ID OHu14034D). Transfection was performed using PEI and equal amounts of required plasmids with a total DNA amount of 8 µg per transfection of 3,000,000 cells. After overnight incubation, cells were washed with prewarmed PBS before adding ice-cold PBS. Cells were collected and centrifuged at 600 × g for 4 min at 4 °C, washed with ice cold PBS and centrifuged again. The pellet was resuspended in a resuspension buffer (20 mM Tris, pH 7.5, 50 mM KCl, 2 mM MgCl2, 0.25 M sucrose). Cells were disrupted with 30 S by a glass potter (2 cm^3) as described above. The homogenate was centrifuged for 20 min at 12,000 × g and 4 °C. Microsomes were pelleted by ultracentrifugation at 100,000 × g for 1 h at 4 °C. The pellet was resuspended in reaction buffer and the protein concentration determined using the Pierce Protein BCA kit as described above.
Microsomes, 250 µg/mL, expressing CYP17A1, POR and cytochrome b5 were incubated in reaction buffer for 10 min with 1 mM NADPH and the azole antifungals. The reaction was started by adding 500 nM 17α-hydroxypregnenolone in a total reaction volume of 50 µL. After 1 h of incubation at 37 °C, the reaction was stopped adding 50 µL methanol. Samples were evaporated to dryness, reconstituted in 6 µL methanol, diluted 1:25 in water and the DHEA concentration was quantified using an ELISA kit (DEH3344, Demeditec, Kiel, Germany). Absorbance was measured using a BioTek Citation5 imaging reader.

CYP21A2 = target: T2, CYP21A2 (Homo sapiens, UniProt P08686); test: CYP21A2 activity assay, microsomes of transfected COS-1 cells; format: biochemical; conditions: cell-free, progesterone 500 nM, 10 min
T2 construct: host or cells: COS-1 cells, transient transfection, microsomal fraction
T2 sequence (P08686 1-495): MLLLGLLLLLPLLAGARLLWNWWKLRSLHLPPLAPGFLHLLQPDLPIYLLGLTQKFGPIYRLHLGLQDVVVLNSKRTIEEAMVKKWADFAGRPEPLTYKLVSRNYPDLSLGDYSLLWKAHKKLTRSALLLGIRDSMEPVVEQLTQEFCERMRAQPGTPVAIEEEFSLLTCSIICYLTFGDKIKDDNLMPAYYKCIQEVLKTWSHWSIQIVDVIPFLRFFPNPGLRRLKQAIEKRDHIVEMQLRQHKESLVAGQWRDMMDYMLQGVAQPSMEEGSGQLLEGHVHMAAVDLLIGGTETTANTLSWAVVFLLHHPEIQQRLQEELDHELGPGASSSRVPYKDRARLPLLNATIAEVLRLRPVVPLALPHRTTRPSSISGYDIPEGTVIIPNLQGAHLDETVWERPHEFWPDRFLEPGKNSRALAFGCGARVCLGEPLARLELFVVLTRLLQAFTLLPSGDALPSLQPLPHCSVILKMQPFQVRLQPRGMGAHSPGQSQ
Method: as §1
(§2) Microsomal protein (250 µg/mL) was preincubated with 1 mM NADPH and the compound of interest in reaction buffer for 10 min. The reaction was started by adding progesterone spiked with a radioactive tracer (final activity 0.025 mCi) to a final concentration of 500 nM. After 10 min of incubation at 37 °C the reaction was stopped by adding enzyme substrate and product at a final concentration of 1 mM in methanol, followed by shock-freezing in liquid nitrogen. Steroids were separated by thin layer chromatography on SIL G-25 UV254 TLC plates (Macherey-Nagel, Düren, Germany) using chloroform and ethyl acetate (1:4; v:v). Bands were excised and radiolabeled steroids analyzed by scintillation counting using […] Plus cocktail (Zinsser Analytic, Frankfurt am Main, Germany) and a β-counter (Packard, Connecticut, USA). Relative conversion was calculated based on total counts.

CYP17A1 17α-hydroxylase = target: T3, CYP17A1 17α-hydroxylase (Homo sapiens, UniProt P05093); test: CYP17A1 17α-hydroxylase activity assay, microsomes of transfected COS-1 cells; format: biochemical; conditions: cell-free
T3 construct: expressed in transfected cells; host or cells: COS-1 cells, transient transfection, microsomal fraction
T3 sequence (P05093 1-508): T1 sequence (P05093 1-508)
Method: as §1, §2

11β-HSD2 = test system: 11β-HSD2; design: method as in Beck et al., 2017, Beck et al., 2020a; conditions: in words, ref Beck et al., 2017, Beck et al., 2020a; cited from earlier work
[1] = design: method as in earlier work; conditions: ref Zhang et al., 2018, Märtson et al., 2019, Vena et al., 2020, Risum et al., 2021, cited from earlier work
H295R cells = test: Steroidogenesis assay in forskolin-stimulated H295R cells, UHPLC-MS/MS; format: cell-based, human; conditions: forskolin-stimulated, 48 h, in words
Method: Briefly, 200,000 cells/mL between passages 5 and 10 were seeded in a 24-well plate. After 24 h, the medium was replaced by fresh medium containing reference or test compounds. […] As a time zero control, complete medium was incubated without cells. After 48 h of incubation, the cell culture supernatant was collected and stored at −20 °C until steroid quantification was performed by ultra-high liquid chromatography tandem mass spectrometry (UHPLC-MS/MS). All experiments were performed three times independently in technical duplicates.
Using water, the sample volume was adapted to 1 mL. Samples were extracted using Oasis HLB 3 cc SPE cartridge (30 mg, 30 μm particle size, Waters, Massachusetts, USA). Columns were preconditioned with 1 mL ethyl acetate and water prior to application of samples. After sample loading, columns were washed three times with 1 mL methanol (10% v/v) and water before samples were eluted applying 0.75 mL ethyl acetate twice. Eluates were evaporated to dryness and reconstituted in 50 µL methanol. Samples were applied to a reverse phase column (Waters Acquity UPLC BEH C18, 1.7 μm, 2.1 mm × 150 mm). […] Applied mobile phases consisted of water, acetonitrile and formic acid (95/5/0.1; v/v/v and 5/95/0.1; v/v/v). For data analysis, Hunter software version B.09.00 (Agilent Technologies) was used. Lower limit of detection (LOD), lower limit of quantification (LLOQ), and upper limit of quantification (ULOQ) are shown in Table 1.

CYP11A1 = target: T4, CYP11A1 (Homo sapiens, UniProt P05108); test: CYP11A1 assay based on mitochondrial fraction of V79-4 cells; format: biochemical; conditions: 10 µM, 20S-hydroxycholesterol 2 µM, 4 h, qualitative, assay of low sensitivity
T4 construct: host or cells: V79-4 cells (Chinese hamster), transient transfection, mitochondrial fraction
T4 sequence (P05108 40-521): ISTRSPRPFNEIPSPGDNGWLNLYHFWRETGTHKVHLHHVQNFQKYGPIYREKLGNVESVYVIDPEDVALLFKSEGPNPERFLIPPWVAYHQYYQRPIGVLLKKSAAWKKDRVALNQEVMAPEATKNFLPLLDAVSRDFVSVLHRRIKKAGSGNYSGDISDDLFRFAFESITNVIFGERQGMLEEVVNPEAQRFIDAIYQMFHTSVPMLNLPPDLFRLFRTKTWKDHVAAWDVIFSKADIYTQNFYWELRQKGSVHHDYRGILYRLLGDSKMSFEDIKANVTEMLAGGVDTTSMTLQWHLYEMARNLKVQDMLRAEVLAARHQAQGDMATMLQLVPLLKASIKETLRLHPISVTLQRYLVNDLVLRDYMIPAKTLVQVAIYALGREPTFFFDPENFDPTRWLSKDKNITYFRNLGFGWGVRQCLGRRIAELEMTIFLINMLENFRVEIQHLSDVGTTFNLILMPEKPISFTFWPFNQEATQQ
Method: Mitochondria were prepared as described previously with modifications ([Frezza et al., 2007]). Briefly, V79-4 cells (3,000,000) were seeded 4 h prior to transfection with 4 µg of expression plasmid for CYP11A1 and adrenodoxin (GeneScript Piscataway, USA, clone IDs OHu18602D and OHu55929D) using polyethylemine (PEI) in a PEI/DNA ratio of 3:1 (w/w). At 4 h post-transfection, medium was changed and cells were incubated overnight. Cells were collected in ice cold phosphate buffered saline (PBS) and centrifuged at 600 × g for 10 min at 4 °C. The pellet was resuspended in ice cold isolation buffer (10 mM Tris/MOPS, pH 7.4, 1 mM EGTA/Tris, pH 7.4, 200 mM sucrose in water) and transferred to a glass potter, followed by 35 S using a 2 cm^3 glass Teflon pestle. The homogenate was centrifuged for 10 min at 600 × g and 4 °C. The supernatant was collected and centrifuged for 10 min at 7000 × g at 4 °C. The pellet was washed and resuspended in 200 μL ice cold isolation buffer. After centrifugation, the pellet containing the mitochondrial fraction was resuspended in 30 μL reaction buffer (25 mM HEPES pH 7.4, 0.1 mM DTT, 0.1 mM EDTA, 4 mM MgCl2) and the protein content was determined by the BCA assay according to the manufacturer (Pierce BCA protein assay kit, Thermo Scientific, Rockford, USA). Bovine serum albumin provided with the kit was used as reference protein and absorbance was measured using a BioTek Cytation5 Imaging Reader (Agilent BioTek).
For the CYP11A1 activity assay, 500 µg/mL of freshly prepared mitochondrial fraction were pre-incubated on ice with reaction buffer, 1 mM NADPH and either vehicle (0.1% DMSO), 10 µM of the positive control ketoconazole ([Mast et al., 2013]) or the triazole antifungals for 10 min. The reaction was started by adding the substrate 20S-hydroxycholesterol at a final concentration of 2 µM in a reaction volume of 50 µL. After 4 h of incubation at 37 °C, the reaction was stopped by adding 50 µL methanol and shock-freezing in liquid nitrogen. Samples were stored at −80 °C until sample preparation for pregnenolone detection using an ELISA kit (Alpco, Salem, USA). Sample preparation included evaporation of samples to dryness, reconstitution in 6 µL methanol and 1:25 (v:v) dilution in water. The ELISA was performed according to the manufacturer and absorbance was measured using a BioTek Citation5 imaging reader.

[2] = progesterone 500 nM, 10 min, read-out: IC50 CYP17A1 17α-hydroxylase mean

## CC(O)C(C)n1ncn(-c2ccc(N3CCN(c4ccc(OCC5COC(Cn6cncn6)(c6ccc(Cl)cc6Cl)O5)cc4)CC3)cc2)c1=O (centres unmarked) [OH-itraconazole, Hydroxyitraconazole]
CYP17A1 17,20-lyase
  IC50: 2.48 µM
CYP17A1 17,20-lyase; relative to posaconazole
  lower inhibitory potency against 17,20-lyase than posaconazole: 10 times
CYP21A2
  IC50: > 10 µM
CYP17A1 17α-hydroxylase; in words
  inhibition of CYP17A1 17α-hydroxylase: very weakly
CYP17A1 17α-hydroxylase; [2]
  IC50: 7.16 µM

## OC(Cn1cncn1)(Cn1cncn1)c1ccc(F)cc1F [fluconazole]
11β-HSD2
  inhibition of 11β-HSD2: inactive
CYP17A1 17,20-lyase
  IC50: > 10 µM
[1]; molar value in brackets
  serum trough concentration: ~3 µM
[1]
  serum trough concentration: 11 µg/mL
CYP21A2
  IC50: > 10 µM
CYP17A1 17α-hydroxylase; [2]
  IC50: > 10 µM
H295R cells
  effect on the steroid profile: only minor effects on the steroid profile

## CC(=O)N1CCN(c2ccc(OCC3COC(Cn4ccnc4)(c4ccc(Cl)cc4Cl)O3)cc2)CC1 (centres unmarked) [ketoconazole]
CYP11A1
  inhibition of CYP11A1 activity: weak inhibitory effect

## CCCN(CCOc1c(Cl)cc(Cl)cc1Cl)C(=O)n1ccnc1 [prochloraz]
CYP17A1 17,20-lyase
  IC50: 0.04 µM
CYP21A2
  IC50: 0.21 µM
CYP17A1 17α-hydroxylase; [2]
  IC50: 0.09 µM
CYP17A1 17α-hydroxylase; read-out: IC50 against 17α-hydroxylase
  IC50: 0.0945 µM
H295R cells
  effect on the steroid profile: significant accumulation of progesterone

## C[C@@H](c1ncncc1F)[C@](O)(Cn1cncn1)c1ccc(F)cc1F [voriconazole]
11β-HSD2
  inhibition of 11β-HSD2: inactive
CYP17A1 17,20-lyase
  IC50: > 10 µM
CYP21A2
  IC50: > 10 µM
CYP17A1 17α-hydroxylase; [2]
  IC50: > 10 µM
H295R cells
  effect on the steroid profile: only minor effects on the steroid profile
